According to article PMC9551036, “A selective and orally bioavailable VHL-recruiting PROTAC achieves SMARCA2 degradation in vivo” (Nature Communications, 2022):
Where “and” joins values, the source holds several entries; their conditions need not be identical. Equal values may be shown once. Read-outs that look alike come from different tables or passages of the source.

How the values were obtained:
[1] = biological target: T1, VCB: PROTAC: SMARCA2^BD ternary complex (Homo sapiens, UniProt P51531); assay: TR-FRET ternary complex affinity and cooperativity, SMARCA2; format: binding
T1 construct: P51531-2, residues 1373-1493 with additional N-terminal SM residues; GST (TEV site) (N); His6 (TEV site) (N, cleaved yes); made in house; host or cells: SMARCA2^BD: Escherichia coli BL21(DE3)

[2] = test system: NCI-H1568 cells; assay: Cell viability assay (CellTiter Glo) in NCI-H1568; format: cell-based, human
Outline: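 NCI-H1568 cells, 500–2000 per well, were plated in 180–200 µl of medium in white 96-well plates with clear bottoms (Corning or Perkin Elmer). One day later a digital dispenser added the compounds, and a T0 reference sample was read. Viability was then determined by luminescence with CellTiter Glo or CellTiter Glo 2.0 (Promega).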

[3] = biological target: T2, SMARCA4 (Homo sapiens, UniProt P51532); assay: SMARCA4 capillary electrophoresis protein assay in RKO cells; format: cell-based; parameters: endogenous in cells; host or cells: RKO, HCT116, LU99, HCC-364, HCT-15, HCC4006, SK-N-AS; settings: mean ± SD
Outline: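 Cells were treated with compound for 4 or 18 h. Half-life was followed with 50 µg/ml cycloheximide for 1–24 h, and re-synthesis with 100 nM compound 6 for 4 h, then VHL binder at 25 or 50 µM for 3 or 24 h. SMARCA2/4 was quantified by Wes capillary immunoassay, normalised to GAPDH, with 4-parameter logistic fits.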

[4] = biological target: T2, SMARCA4; assay: Imaging-based SMARCA4 protein assay in RKO cells; format: cell-based; parameters: endogenous in cells; host or cells: RKO, HCT116, LU99, HCC-364, HCT-15, HCC4006, SK-N-AS; settings: 4h, individual replicates, read-out: RKO (4h) SMARCA4 DC50
Outline: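 RKO cells were seeded at 1250 per well in 60 µl medium on poly-lysin coated 384-well plates and dosed next day with serial compound dilutions or DMSO. After fixation, blocking with 10% goat serum and SMARCA2/4 antibody staining, nuclear mean intensity was imaged on Opera Phoenix, normalized to background-corrected DMSO, and fitted with a 4-parametric logistic model.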

[5] = biological target: VCB: PROTAC: SMARCA4^BD ternary complex (Homo sapiens, UniProt P40337+P51532); assay: TR-FRET ternary complex affinity and cooperativity, SMARCA4; format: binding; parameters: P51532, residues 1448–1569 with additional N-terminal SM residues; GST (TEV site) (N); His6 (TEV site) (N, cleaved yes); made in house; host or cells: SMARCA4^BD: Escherichia coli BL21(DE3)
VCB: PROTAC: SMARCA4^BD ternary complex, sequence (P51532 1448-1569): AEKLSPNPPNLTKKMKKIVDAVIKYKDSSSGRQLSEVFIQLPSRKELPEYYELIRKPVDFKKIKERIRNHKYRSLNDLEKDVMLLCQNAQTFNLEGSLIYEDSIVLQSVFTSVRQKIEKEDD
VCB: PROTAC: SMARCA4^BD ternary complex, sequence (P40337 54-213): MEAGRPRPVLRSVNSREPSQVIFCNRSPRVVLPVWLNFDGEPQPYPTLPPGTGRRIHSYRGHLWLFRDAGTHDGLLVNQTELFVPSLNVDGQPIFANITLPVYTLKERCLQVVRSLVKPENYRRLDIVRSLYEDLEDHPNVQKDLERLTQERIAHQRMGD
VCB: PROTAC: SMARCA4^BD ternary complex, sequence (Q15369 17-112 partner): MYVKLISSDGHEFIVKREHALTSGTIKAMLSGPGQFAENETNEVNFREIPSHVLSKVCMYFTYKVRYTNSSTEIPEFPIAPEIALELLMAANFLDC
VCB: PROTAC: SMARCA4^BD ternary complex, sequence (Q15370 1-104 partner): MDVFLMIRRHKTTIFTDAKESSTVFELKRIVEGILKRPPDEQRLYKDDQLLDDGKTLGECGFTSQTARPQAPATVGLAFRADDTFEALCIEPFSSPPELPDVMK

T2 sequence (P51532 whole entry): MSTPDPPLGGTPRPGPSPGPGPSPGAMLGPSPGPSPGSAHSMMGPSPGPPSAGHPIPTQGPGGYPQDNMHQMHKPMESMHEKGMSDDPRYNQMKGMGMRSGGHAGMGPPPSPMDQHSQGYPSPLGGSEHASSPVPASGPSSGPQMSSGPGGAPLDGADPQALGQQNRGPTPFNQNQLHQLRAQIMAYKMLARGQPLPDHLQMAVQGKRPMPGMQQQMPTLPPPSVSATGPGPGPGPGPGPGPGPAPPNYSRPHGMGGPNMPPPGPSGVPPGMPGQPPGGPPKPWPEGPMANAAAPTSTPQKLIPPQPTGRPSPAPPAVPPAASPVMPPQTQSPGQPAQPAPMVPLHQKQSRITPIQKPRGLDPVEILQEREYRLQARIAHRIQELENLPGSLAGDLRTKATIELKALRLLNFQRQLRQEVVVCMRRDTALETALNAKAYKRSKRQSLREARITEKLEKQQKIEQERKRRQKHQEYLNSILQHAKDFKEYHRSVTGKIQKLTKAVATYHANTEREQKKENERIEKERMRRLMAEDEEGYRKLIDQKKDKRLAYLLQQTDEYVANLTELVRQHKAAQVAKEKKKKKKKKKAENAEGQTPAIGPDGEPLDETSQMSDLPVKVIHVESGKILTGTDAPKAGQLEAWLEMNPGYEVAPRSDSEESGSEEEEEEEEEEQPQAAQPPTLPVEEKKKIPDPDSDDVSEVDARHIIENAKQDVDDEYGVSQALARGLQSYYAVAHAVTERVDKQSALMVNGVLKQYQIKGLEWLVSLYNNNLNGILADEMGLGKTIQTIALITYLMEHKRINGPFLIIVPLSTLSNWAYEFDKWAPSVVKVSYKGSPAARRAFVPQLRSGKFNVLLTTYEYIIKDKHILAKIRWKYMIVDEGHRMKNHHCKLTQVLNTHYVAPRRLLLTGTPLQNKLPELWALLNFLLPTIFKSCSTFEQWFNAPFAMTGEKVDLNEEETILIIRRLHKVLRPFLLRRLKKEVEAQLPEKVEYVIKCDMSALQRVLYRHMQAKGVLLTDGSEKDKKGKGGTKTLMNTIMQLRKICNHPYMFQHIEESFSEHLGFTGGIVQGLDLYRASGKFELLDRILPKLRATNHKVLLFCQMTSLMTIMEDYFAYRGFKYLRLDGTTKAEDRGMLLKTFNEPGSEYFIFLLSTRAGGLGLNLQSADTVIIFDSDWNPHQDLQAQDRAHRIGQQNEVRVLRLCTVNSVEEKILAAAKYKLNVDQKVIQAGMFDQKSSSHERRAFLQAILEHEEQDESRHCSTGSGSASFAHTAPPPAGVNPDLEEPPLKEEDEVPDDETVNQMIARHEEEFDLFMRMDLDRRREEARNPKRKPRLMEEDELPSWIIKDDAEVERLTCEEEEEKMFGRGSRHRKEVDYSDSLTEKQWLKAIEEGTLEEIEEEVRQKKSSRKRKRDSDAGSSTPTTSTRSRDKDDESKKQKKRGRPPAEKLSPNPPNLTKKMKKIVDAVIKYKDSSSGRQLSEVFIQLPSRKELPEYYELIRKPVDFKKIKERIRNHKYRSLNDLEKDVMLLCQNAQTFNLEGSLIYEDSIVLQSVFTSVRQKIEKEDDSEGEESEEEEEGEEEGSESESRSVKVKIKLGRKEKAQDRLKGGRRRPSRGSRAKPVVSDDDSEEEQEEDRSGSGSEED
T1 sequence (P51531 with tags, fused parts or gaps isoform P51531-2): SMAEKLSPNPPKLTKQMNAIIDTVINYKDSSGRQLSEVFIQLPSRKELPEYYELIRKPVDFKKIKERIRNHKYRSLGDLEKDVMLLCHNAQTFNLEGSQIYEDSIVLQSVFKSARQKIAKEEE

SMILES: Cc1ncsc1-c1ccc([C@H](CCC(C)(C)CCN2CCC(c3ccc4c(c3)n(C3CCCC3)c3nc(=O)c5c(Br)cccc5n43)CC2)NC(=O)[C@@H]2C[C@@H](O)CN2C(=O)[C@@H](NC(=O)C2(F)CC2)C(C)(C)C)cc1 [compound 30]
- EC50 ([1]; TR-FRET competition for SMARCA2BD, without VCB, mean ± SD, read-out: TR-FRET SMARCA2BD EC50): 260 ± 100 nM
- EC50 ([1]; binary, PROTAC alone, individual replicates, read-out: SMARCA2 BD EC50): 213 nM and 176 nM and > 400 nM and 400 nM and 304 nM
- EC50 ([2]; NCI-H1568 ([…]), mean ± SD, read-out: EC50 cell proliferation (CellTiter Glo)): 12 ± 6 nM
- IC50 ([2]; NCI-H1568, (18h), CellTiter Glo, individual replicates, read-out: NCI-H1568 (18h) CTG): 19.7 nM and 17.5 nM and 8.43 nM and 7.53 nM
- DC50 ([3]; RKO (4 h)): > 25000 nM
- DC50 ([3]; RKO (18 h)): 73 ± 35 nM
- SMARCA4 Dmax ([3]; RKO (18 h)): 72 ± 7%
- DC50 [4]: > 25 µM
- EC50 ([5]; PROTAC + VCB, individual replicates, read-out: Ternary SMARCA4 BD EC50 (PROTAC + VCB)): 88.3 nM and 118 nM and 113 nM
- EC50 ([5]; TR-FRET competition for SMARCA4BD, + VCB, mean ± SD, read-out: TR-FRET Ternary SMARCA4BD EC50 (PROTAC + VCB)): 106 ± 16 nM
